In data set [1] the target is rhTNF-α (Homo sapiens, UniProt P01375). Description: Microscale thermophoresis (MST) binding to labeled rhTNF-α. To be noted: labeled rhTNF-α 20 nM, PBS, mean ± SD of three replicates. How it is done:
MST was performed using a Monolith NT.115 Pico instrument (NanoTemper Technologies, Munich, Germany). In this technique, thermophoresis applied by irradiation with an infrared (IR) laser diode disrupts a ligand-target binding interaction that has equilibrated. The concentration of fluorescent molecules can be altered by the direct movement of molecules within a temperature gradient. The effect on the fluorescence signal is monitored continuously over time.
Experiments were performed using the Monolith Protein Labeling Kit RED-NHS 2nd Generation and Monolith NT.115 Premium Capillaries at Pico-RED 80% excitation power and medium MST power with thermophoresis. Mixtures of labeled molecules and functional peptides or TNFR1 were prepared in PBS. Labeled molecules were maintained at 20 nM for the peptide binding experiments, and the ligand concentrations varied according to the molecule with 16 serial dilutions. The peptide-labeled molecule mixture was loaded into the glass capillaries after 20 min incubation in the dark. Results were analyzed using M.O. Affinity Analysis v.2.3 software.
A general note: MST reads how a fluorescent partner responds to local heating, with and without ligand.

The test system of data set [2] is TNF-α-induced L929 cell death. As to the kind of experiment: TNF-α neutralization test (TNF-α-induced cytotoxicity, MTT) on L929 cells. The data set is classed as cell-based, mouse. As to the method:
(§1) The TNF-α neutralizing activity of designed peptides and adalimumab molecules was compared with cell-based bioactivity assays. L929 cells were cultured in DMEM supplemented with 10% FBS and 1% P/S in a humidified 5% CO2 incubator at 37 °C [43].
(§2) In the TNF-α neutralization test, 3 × 10^4 cells in 100 μL were seeded into 96-well tissue culture plates and incubated at 37 °C in a 5% CO2 incubator for 24 ± 2 h. After incubation, cells were stimulated with 2 μg/mL actinomycin D and 1 ng/mL TNF-α in the presence of diluted concentrations of adalimumab and functional peptides ranging from 1 pM to 10 μM for 24 ± 2 h. […] TNF-α neutralizing activity was also examined by microscopy in a 24-well plate. Both the cytotoxicity effect and neutralizing activity of the OB1 peptide were visually examined by fluorescence microscopy (Zeiss AxioVert A, Oberkochen, Germany). OB1 and adalimumab were administered at a concentration of 1 μM with 1 ng/mL TNF-α.

Data set [3] relates to L929 cells. The data set is classed as cell-based, mouse. To be noted: 1 μM with TNF-α (1 ng/mL) and actinomycin D, microscopy. As to the method: as §2
Data set [4] concerns L929 cells. Description: MTT cytotoxicity of peptides on L929 cells. Type of data set: cell-based, mouse. To be noted: at 10,000 nM (10 μM). How it is done:
as §1
Cytotoxicity of peptides was determined using the 3-(4,5-dimethylthiazol-2-yl)-2,5 diphenyltetrazolium bromide (MTT) cell proliferation assay. Briefly, 3 × 10^4 cells in 100 μL were seeded into 96-well tissue culture plates and incubated at 37 °C in a 5% CO2 incubator for 24 ± 2 h. Peptide concentrations were diluted from 1 pM to 10 μM and measured in triplicate. The following kit protocol and absorbance were measured at 550 nm and 690 nm using a microplate reader (Gen5 Synergy HT BioTek, Winooski, VT, USA).

Data set [5] concerns the target TNF-α. The note with it: peptide from T7 phage display library; cited from earlier work. From the text: Peptide-based TNF-α inhibition has garnered attention in recent years, as studies have shown that peptides may help treat inflammatory diseases. In a study conducted in 2023, a nine amino acid-long peptide targeting TNF-α was discovered using a T7 phage display library. […] OB1 also attenuated TNF-α-induced cell death based on morphological examination (Figure 8). […] Thus, C87 is used as a positive control in many TNF-α inhibitor studies.

The values below come from paper PMC12024540, “Peptide-Based Regulation of TNF-α-Mediated Cytotoxicity” (Biomolecules, 2025).

What is called Kd is the constant that tells how readily two partners part at equilibrium. The IC50 is the midpoint of a concentration-inhibition curve.

Read-outs that look alike come from different tables or passages of the source. Where no end group is shown, it is not given here.

Sequence of rhTNF-α (P01375 77-233 limits assumed): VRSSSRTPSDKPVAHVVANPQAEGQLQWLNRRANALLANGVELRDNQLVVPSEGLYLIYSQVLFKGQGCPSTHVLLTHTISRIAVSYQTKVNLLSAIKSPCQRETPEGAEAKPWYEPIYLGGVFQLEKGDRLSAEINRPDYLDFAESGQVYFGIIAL

Consider KGGGSGGGSHIHDDLLRYYGW-NH2 [OB1], for which the Kd in data set [1] is 300 nM. Further, in data set [2] (2 h, 10000 nM), the “survival rate in TNF-α neutralization” value is reported as around 80%. Inhibition in data set [2] (mouse) was half-maximal at 4.6 nM (IC50).
Turning to Adalimumab, the Kd in data set [1] was found to be 0.0211 ± 0.0036 nM. For the same substance, in data set [3], the “cell survival by morphology with TNF-α and actinomycin D” value was “enhanced cell survival”. Half-maximal inhibition in data set [2] (IC50) required 3.85 nM. In data set [2] (L929 cells, 10,000 nM, 1 ng/mL TNF-α and actinomycin D), the “survival rate in TNF-α neutralization” value is recorded as around 80%.
Regarding KGGGSGGGSGGGSRKEMGQV-NH2 [OB2], binding in data set [1] was characterised by a dissociation constant (Kd) of 46.7 nM. For the same substance, the “survival rate in TNF-α neutralization” value in data set [2] (2 h, 10000 nM) is recorded as around 80%.
On to KRWSRYFWVDMTGTR-NH2 [OB8], for which the “cytotoxicity (in words)” value in data set [4] is reported as “non-toxic”. This substance had a dissociation constant (Kd) in data set [1] of 3890 ± 4540 nM.
As for “ACHAWAPTR [pep2, nine amino acid-long peptide targeting TNF-α from a T7 phage display library]”, the Kd in data set [5] was 5140 nM.
